Experimental data published in publication PMC12193579, “Pro-Apoptotic Activity of 1-(4,5,6,7-Tetrabromo-1H-benzimidazol-1-yl)propan-2-one, an Intracellular Inhibitor of PIM-1 Kinase in Acute Lymphoblastic Leukemia and Breast Cancer Cells” (International Journal of Molecular Sciences, 2025).
Entries after “also recorded” stand apart in the source; their conditions may differ. Like-named read-outs stand apart in the source and are kept apart here.

What was measured:
Jurkat cells = tested on: Jurkat cells; set-up: method as in PMID 15566294; conditions: read-out: DC50 value, apoptosis of Jurkat cells; cited from earlier work
[1] = tested on: mitochondria polarization; set-up: method as in PMID 15566294; conditions: up to a 10 µM concentration; cited from earlier work
LNCaP cell line = tested on: LNCaP cell line; set-up: method as in PMID 29246854; conditions: 48 h of exposure to 10 μM; cited from earlier work
PIM-1 kinase = biological target: T1, PIM-1 kinase (Homo sapiens, UniProt P11309); experiment: radiometric P81 filter isotopic kinase assay, PIM-1; assay type: biochemical; conditions: for remaining activity at 2 µM: cpd. concentration 2 μM; for remaining activity at 2 µM / remaining activity at 5 µM / remaining activity at 20 µM: read-out: PIM-1 Residual Activity [%]; for remaining activity at 5 µM: cpd. concentration 5 μM; for remaining activity at 20 µM: cpd. concentration 20 μM
T1 construct: made in house
Description: (§1) Synthetic peptide […] served as the substrate for CK2, while peptide […] was used as the substrate for PIM-1.
(§2) The synthesized compounds were evaluated for their inhibitory activity against human CK2α, the human CK2 holoenzyme, and PIM-1 using the P81 filter-based isotopic assay, as previously described. […] The experimental data were fitted to a dose–response curve using non-linear regression analysis (variable slope) Y = Bottom + (Top − Bottom)/(1 + 10^((LogIC50 − X) × HillSlope) equation in GraphPad Prism (Prism 9, version 9.0.1).

[2] = tested on: CCRF-CEM (acute lymphoblastic leukemia); experiment: MTT-based viability assay, CCRF-CEM; assay type: cell-based, human; conditions: for IC50: Homo sapiens, CCRF-CEM, 48 h, read-out: IC50 [µM] CCRF-CEM; for SI (selectivity index) CCRF-CEM: IC50 for Vero/IC50 for cancer cells
Description: (§3) 3. The cytotoxicity of the newly obtained inhibitors, i.e., 1, 2, and 4 was tested towards four cell lines, i.e., CCRF-CEM (acute lymphoblastic leukemia ALL), MCF-7 (breast carcinoma), MDA-MB-231 (triple negative breast carcinoma), and Vero (Cercopithecus aethiops kidney).
(§4) The CCRF-CEM (acute lymphoblastic leukemia, ALL) and MDA-MB-231 (triple-negative breast adenocarcinoma) cell lines were obtained from the European Collection of Authenticated Cell Cultures (ECACC), while the MCF-7 (hormone-dependent breast adenocarcinoma) and Vero (Cercopithecus aethiops kidney) cell lines were purchased from the American Type Culture Collection (ATCC, Manassas, VA, USA). CCRF-CEM cells were maintained in RPMI-1640 medium, whereas MCF-7 and MDA-MB-231 cells were cultured in DMEM (Sigma-Aldrich Chemical Company, St. Louis, MO, USA). Vero cells were cultured in minimum essential medium eagle (MEM; Sigma-Aldrich). All media were supplemented with 10% fetal bovine serum (FBS), 2 mM L-glutamine, and antibiotics (100 U/mL penicillin and 100 µg/mL streptomycin) (Sigma-Aldrich). Cells were grown in 75-cm^2 culture flasks (Googlab Scientific, Rakocin, Poland) in a humidified atmosphere containing 5% CO2 at 37 °C. All experiments were performed using exponentially growing cultures. Stock solutions of the test compounds were prepared in DMSO and stored at –80 °C for up to one month.
(§5) Following incubation with the tested compounds, the MTT assay was carried out as previously described. Optical density was measured at 570 nm using a BioTek microplate reader (Winooski, VT, USA). All measurements were performed in at least three independent biological replicates.

MCF-7 (breast carcinoma) = experiment: MTT-based viability assay, MCF-7; assay type: cell-based, human; conditions: for IC50: Homo sapiens, read-out: IC50 [µM] MCF-7; for SI (selectivity index) MCF-7: IC50 for Vero/IC50 for cancer cells
Description: as §3, §4, §5

[3] = tested on: MDA-MB-231 (breast carcinoma); experiment: MTT-based viability assay, MDA-MB-231; assay type: cell-based, human; conditions: for IC50: Homo sapiens, read-out: IC50 [µM] MDA-MB-231
Description: as §3, §4, §5

[4] = tested on: Vero (Cercopithecus aethiops kidney); experiment: MTT-based viability assay, Vero; assay type: cell-based; conditions: Chlorocebus sabaeus, 48 h, read-out: IC50 [µM] Vero
Description: as §3, §4, §5

CCRF-CEM cells [5] = experiment: annexin V/propidium iodide apoptosis, flow cytometry, CCRF-CEM; assay type: cell-based, human; conditions: 48 h, annexin V binding
Description: The results obtained for CCRF-CEM and MCF-7 are shown in Figure 3 and Figure 4, respectively. […] 1, 79.6% of cells were apoptotic.
CCRF-CEM cells were seeded in 24-well plates at a density of 2 × 10^5 cells/mL. The cells were treated with the tested compounds at concentrations of 8, 16, and 32 µM, followed by incubation for 48 h. After treatment, the cells were harvested and processed according to the previously described protocol. Flow cytometric measurements were conducted within 1 h of cell labeling. Viable, necrotic, early apoptotic, and late apoptotic cells were identified using a BD Accuri C6 Plus flow cytometer and analyzed with BD Accuri C6 Plus software, version 1.0.34.1 (BD Biosciences, San Jose, CA, USA).

CCRF-CEM cells [6] = experiment: mitochondrial membrane potential (ΔΨm) JC-1 assay, CCRF-CEM; assay type: cell-based, human; conditions: 16 µM, 48 h
Description: The mitochondrial membrane potential was evaluated by flow cytometry using 5,5′,6,6′-tetrachloro-1,1′,3,3′-tetraethylbenzimidazolocarbocyanine iodide (JC-1; Sigma-Aldrich), as previously described.

CCRF-CEM cells [7] = experiment: cell cycle progression by flow cytometry, CCRF-CEM; assay type: cell-based, human; conditions: 16 µM, 48 h; control 33%
Description: Since CK2 and PIM kinases regulate cell cycle progression, their inhibition may alter the distribution of cells across different cell cycle phases. […] For control cells, the percentage of G2/M cells was 17%. In addition to those changes, we observed cells in the sub-G1 phase, which are apoptotic cells. Accumulation of cells in this phase reflects DNA degradation characteristic of apoptotic cells. The largest percentage of these cells, i.e., 32% was determined in 16 µM 1-treated cells (Figure 6a,b).
(§6) CCRF-CEM and MCF-7 cells were cultured in 6-well plates and treated with the tested compounds for 48 h. After exposure to the compounds, the cells were collected, washed with cold PBS, and fixed in 70% ethanol at –20 °C for at least 24 h. Subsequently, the cells were washed in PBS and stained according to the procedure previously described by our group. The cellular DNA content was measured by flow cytometry using a BD Accuri C6 Plus flow cytometer (BD Biosciences, San Jose, CA, USA). The resulting DNA histograms were analyzed with BD Accuri C6 Plus software (San Diego, CA, USA) to assess the distribution of cells across different phases of the cell cycle.

MCF-7 cells = experiment: cell cycle progression by flow cytometry, MCF-7; assay type: cell-based, human; conditions: 8 µM, 48 h; control 17%
Description: Additionally, we observed the prolongation of G2/M in MCF-7 treated with 1 at the highest concentration. […] 1 induced G2/M phase arrest in MCF-7 with the highest effect detected for the 16 µM concentration, manifested as 32% cells in that stage, whereas in the control, the percentage of G2/M cells was 22%.
as §6

[8] = tested on: CK2 in CCRF-CEM cells (Ser529 in NF-κB p65); experiment: PhosFlow analysis of NF-κB p65 Ser529 phosphorylation, CCRF-CEM; assay type: cell-based, human; conditions: 16 µM, 24 h
Description: CCRF-CEM cells were prepared following the BD PhosFlow™ Protocol for Human PBMCs using NF-κB p65 (pS529)-PE (#558423), BD PhosFlow™ Perm Buffer III (#558050), Cytofix Fixation Buffer (#554655), and Stain Buffer FBS (#554656), all obtained from Becton Dickinson. Flow cytometric analysis was performed using a BD Accuri C6 Plus cytometer (Becton Dickinson) according to the manufacturer’s instructions.

[9] = tested on: hormone-sensitive human prostate cancer cell line LNCaP; set-up: method as in PMID 22698781; conditions: cited from earlier work
[10] = biological target: T2, recombinant human CK2 catalytic subunit (rhCK2α) (Homo sapiens, UniProt P68400); experiment: radiometric P81 filter isotopic kinase assay, CK2α; assay type: biochemical; conditions: for remaining activity at 2 µM: cpd. concentration 2 μM; for remaining activity at 2 µM / remaining activity at 5 µM / remaining activity at 20 µM: read-out: CK2α Residual Activity [%]; for remaining activity at 5 µM: cpd. concentration 5 μM; for remaining activity at 20 µM: cpd. concentration 20 μM
T2 construct: made in house
Description: as §1, §2

T1 sequence (P11309 whole entry): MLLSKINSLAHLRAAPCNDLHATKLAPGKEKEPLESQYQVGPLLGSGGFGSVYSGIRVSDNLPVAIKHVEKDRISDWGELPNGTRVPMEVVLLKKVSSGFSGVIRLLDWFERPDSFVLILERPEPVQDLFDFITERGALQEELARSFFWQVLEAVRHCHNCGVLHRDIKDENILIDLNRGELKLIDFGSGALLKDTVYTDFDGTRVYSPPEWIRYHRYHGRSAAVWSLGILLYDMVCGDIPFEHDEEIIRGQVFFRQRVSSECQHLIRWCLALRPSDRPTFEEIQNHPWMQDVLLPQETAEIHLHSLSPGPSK
T2 sequence (P68400 whole entry): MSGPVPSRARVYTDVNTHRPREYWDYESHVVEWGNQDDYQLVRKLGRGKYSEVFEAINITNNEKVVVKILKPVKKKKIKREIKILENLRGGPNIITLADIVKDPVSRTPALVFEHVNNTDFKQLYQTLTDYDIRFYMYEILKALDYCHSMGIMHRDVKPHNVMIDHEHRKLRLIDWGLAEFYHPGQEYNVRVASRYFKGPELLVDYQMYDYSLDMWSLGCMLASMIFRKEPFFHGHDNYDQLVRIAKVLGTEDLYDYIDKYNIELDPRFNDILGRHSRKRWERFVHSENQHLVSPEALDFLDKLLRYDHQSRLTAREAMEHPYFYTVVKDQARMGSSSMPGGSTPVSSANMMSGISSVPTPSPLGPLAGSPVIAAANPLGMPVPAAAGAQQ

CN(C)c1nc2c(Br)c(Br)c(Br)c(Br)c2[nH]1 [DMAT, 2-Dimethylamino-4,5,6,7-tetrabromo-1H-benzimidazole]
DC50 (Jurkat cells): 2.7 µM
side effect on mitochondria polarization [1]: does not display any side effect on mitochondria polarization

OCC1OC(n2cnc3c(Br)c(Br)c(Br)c(Br)c32)CC1O [K164, 1-(β-D-2′-deoxyribofuranosyl)-4,5,6,7-tetrabromo-1H-benzimidazole]
apoptotic cells, LNCaP (LNCaP cell line): 91.8%

Brc1c(Br)c(Br)c2[nH]cnc2c1Br [TBBi, 4,5,6,7-tetrabromo-1H-benzimidazole, reference compound]
IC50 (PIM-1 kinase): 0.53 ± 0.04 µM
IC50 [2]: 17.6 ± 0.67 µM
IC50 (MCF-7 (breast carcinoma); MCF7, 48 h): 12.6 ± 2.72 µM
IC50 ([3]; MDA-MB-231, 48 h): 29.7 ± 2.23 µM
IC50 [4]: 24.8 ± 0.9 µM
apoptotic CCRF-CEM cells (CCRF-CEM cells [5]; 8 µM): 16%
apoptotic CCRF-CEM cells (CCRF-CEM cells [5]; 16 µM): 44%
apoptotic CCRF-CEM cells (CCRF-CEM cells [5]; 32 µM): 95%
CCRF-CEM cells with reduced ΔΨm (CCRF-CEM cells [6]): 37%
CCRF-CEM cells in the S phase (CCRF-CEM cells [7]): 19%
MCF-7 cells in the S phase (MCF-7 cells): 12%
p65-P-negative CCRF-CEM cells [8]: 28%
LD50 against LNCaP [9]: ≈ 20 µM

Brc1c(Br)c(Br)c2[nH]nnc2c1Br [TBBt, 4,5,6,7-tetrabromo-1(2)H-benzotriazole]
DC50 (Jurkat cells): 17 µM

Ic1c(I)c(I)c2[nH]cnc2c1I [TIBI, 4,5,6,7-tetraiodo-1H-benzimidazole]
LD50 against LNCaP [9]: ≈ 20 µM

CC(O)Cn1cnc2c(Br)c(Br)c(Br)c(Br)c21 (stereo not drawn) [compound 2, 1-(4,5,6,7-tetrabromo-1H-benzimidazol-1-yl)propan-2-ol]
IC50 [10]: 11.1 ± 0.15 µM
remaining activity at 2 µM [10]: 70.9 ± 0.9%
remaining activity at 5 µM [10]: 41.8 ± 2.3%
remaining activity at 20 µM [10]: 20.1 ± 1.2%
IC50 (PIM-1 kinase): 2.41 ± 0.29 µM
remaining activity at 2 µM (PIM-1 kinase): 58 ± 2.4%
remaining activity at 5 µM (PIM-1 kinase): 26.4 ± 1.7%
remaining activity at 20 µM (PIM-1 kinase): 9.3 ± 0.3%
IC50 ([2]; MTT): 58.2 ± 5.86 µM
SI (selectivity index) CCRF-CEM [2]: 1.65
IC50 (MCF-7 (breast carcinoma); MCF7, MTT, 48 h): 18.4 ± 0.41 µM
SI (selectivity index) MCF-7 (MCF-7 (breast carcinoma)): 5.21
IC50 ([3]; MDA-MB-231, MTT, 48 h): 28.2 ± 3.27 µM
SI (selectivity index) MDA-MB-231 ([3]; IC50 for Vero/IC50 for cancer cells): 3.4
IC50 ([4]; MTT, non-cancerous cells): 96.1 ± 4.76 µM

CC(=O)CCn1cnc2c(Br)c(Br)c(Br)c(Br)c21 [compound 3, 4-(4,5,6,7-Tetrabromo-1H-benzimidazol-1-yl)butan-2-one]
inhibition of CK2 kinase (in words) [10]: inactive; also recorded: very weak
remaining activity at 2 µM [10]: 102 ± 8.9%
remaining activity at 5 µM [10]: 89.2 ± 8.6%
remaining activity at 20 µM [10]: 82.8 ± 15.4%
inhibition of PIM-1 kinase (in words) (PIM-1 kinase): inactive; also recorded: very weak
remaining activity at 2 µM (PIM-1 kinase): 82.5 ± 4.2%
remaining activity at 5 µM (PIM-1 kinase): 67.4 ± 0.7%
remaining activity at 20 µM (PIM-1 kinase): 62.6 ± 0.8%

CC(O)CCn1cnc2c(Br)c(Br)c(Br)c(Br)c21 (stereo not drawn) [compound 4]
remaining activity at 2 µM [10]: 72.1 ± 3%
remaining activity at 5 µM [10]: 21.3 ± 1.9%
remaining activity at 20 µM [10]: 15.6 ± 0.3%
IC50 (PIM-1 kinase): 3.08 ± 0.07 µM
remaining activity at 2 µM (PIM-1 kinase): 66.9 ± 1.1%
remaining activity at 5 µM (PIM-1 kinase): 29.1 ± 0.1%
remaining activity at 20 µM (PIM-1 kinase): 21.4 ± 0.2%
IC50 ([2]; MTT): 75.3 ± 10.3 µM
SI (selectivity index) CCRF-CEM [2]: 1.75
IC50 (MCF-7 (breast carcinoma); MCF7, MTT, 48 h): 41.9 ± 8.37 µM
SI (selectivity index) MCF-7 (MCF-7 (breast carcinoma)): 3.15
IC50 ([3]; MDA-MB-231, MTT, 48 h): > 200 µM
IC50 ([4]; MTT, non-cancerous cells): 132 ± 19.4 µM
